pIC50: −log10 of the molar value.
How the values were obtained:
CDK4/cyclin D1 = target: T1, CDK4/cyclin D1 (Homo sapiens, UniProt P11802); experiment: Inhibitory activity against CDK4/cyclin D1 enzyme (GST-RB phosphorylation, P32-γ-ATP, scintillation counting); format: biochemical; conditions: CDK4/cyclin D1, 100 μM ATP, GST-RB substrate, 30° C. 30 minutes
T1 construct: made in house; host or cells: insect cells infected with baculoviruses
Procedure: (§1) Analysis of inhibitory activity against CDK2/cyclin A and CDK4/cyclin D1 enzyme.
(§2) The inhibitory activity against CDK2 is measured by referring to Kitagawa, M. et al., Oncogene 9:2549, 1994 and the inhibitory activity against CDK4 is measured by referring to Carlson, B. A. et al., Cancer Research 56:2473,1996.
(§3) As for CDK2, either the extract from the insect cell infected both with baculovirus which expresses CDK2 gene and baculovirus which expresses cyclin A gene or the active enzyme which had been purified therefrom was used. CDK4 enzyme was also obtained from the insect cell infected both with baculovirus expressing CDK4 gene and baculovirus expressing cyclin D1 gene. As the substrate for CDK2, either histon H1 or Rb protein was used. Rb protein was also used as the substrate for CDK4.
(§4) Specifically the activities of enzymes CDK2/cyclin A and CDK4/cyclin D1 were determined according to the following procedure.
(§5) 100 ng of enzyme was reacted in a total 1000 μl of 20 mM Tris (pH 8.0), 100 mM NaCl, 10 mM MgCl2 buffer solution containing 20 μg of GST-RB protein, 100 μM of ATP and 5 μCi of P32-γ-ATP at 30° C. for 30 minutes. Then, the enzyme reaction was stopped by adding EDTA to a concentration of 20 mM. Subsequently, 30 μl of 50% glutathione bead (purchased from Pharmacia) was added to attach GST-RB to the bead, which was washed three times with 20mM Tris (pH 8.0), 100 mM NaCl, 10 mM EDTA solution, and then scintillation counting was carried out. To analyze the inhibitory activity of the compound, the inhibitor having a proper concentration was added to the enzyme reaction solution, and then the enzyme activity was measured according to the above method.
(§6) The inhibitory activity of the compound of formula (1) according to the present invention against CDK2 and CDK4 is represented as IC50 value. The compounds which are not included in Examples(compound 63, 64, 65 and 66) were synthesized and purified according to the same procedure as examples, and then IC50 thereof was measured.

CDK2/cyclin A = target: T2, CDK2/cyclin A (Homo sapiens, UniProt P24941); experiment: Inhibitory activity against CDK2/cyclin A enzyme (GST-RB phosphorylation, P32-γ-ATP, scintillation counting); format: biochemical; conditions: 100 μM ATP, GST-RB substrate, 30° C. 30 minutes
T2 construct: made in house; host or cells: insect cells infected with baculoviruses
Procedure: as §1, §2, §3, §4, §5, §6

T1 sequence (P11802 whole entry, species assumed): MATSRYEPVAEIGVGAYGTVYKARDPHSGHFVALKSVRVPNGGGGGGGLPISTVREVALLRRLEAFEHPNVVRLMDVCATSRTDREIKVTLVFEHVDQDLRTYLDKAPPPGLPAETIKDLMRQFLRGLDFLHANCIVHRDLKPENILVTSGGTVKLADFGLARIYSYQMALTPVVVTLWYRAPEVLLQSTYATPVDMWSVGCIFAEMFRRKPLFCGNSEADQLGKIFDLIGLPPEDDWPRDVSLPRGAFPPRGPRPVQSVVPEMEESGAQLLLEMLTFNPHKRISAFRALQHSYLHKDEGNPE
T1 sequence (P24385 whole entry partner, species assumed): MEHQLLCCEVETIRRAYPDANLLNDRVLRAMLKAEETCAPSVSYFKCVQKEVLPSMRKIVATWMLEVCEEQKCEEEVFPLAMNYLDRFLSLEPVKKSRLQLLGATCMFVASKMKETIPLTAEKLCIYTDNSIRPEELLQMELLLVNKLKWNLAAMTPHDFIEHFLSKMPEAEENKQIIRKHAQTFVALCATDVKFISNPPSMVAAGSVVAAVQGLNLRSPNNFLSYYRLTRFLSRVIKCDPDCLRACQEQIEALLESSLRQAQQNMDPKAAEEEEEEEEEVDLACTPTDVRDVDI

Structure (SMILES) | pIC50 (CDK4/cyclin D1) | pIC50 (CDK2/cyclin A)
Cc1ccc2oc(-c3ccc(O)c(O)c3)c(O)c(=O)c2c1 [Compound 18, 6-methyl-2-(3,4-dihydroxyphenyl)-3-hydroxy-4H-chromen-4-one] | > 5.00 | > 5.00
O=c1c(O)c(-c2ccc(O)c(O)c2)oc2ccc(NS(=O)(=O)c3ccc(F)cc3F)cc12 [Compound 42, N-[2-(3,4-dihydroxyphenyl)-3-hydroxy-4-oxo-4H-chromen-6-yl]-2,4-difluorobenzenesulfonamide] | 5.37 | 4.34
O=c1c(O)c(-c2ccc(O)c(O)c2)oc2ccc(NS(=O)(=O)CCc3cccc4ccccc34)cc12 [Compound 33, N-[2-(3,4-dihydroxyphenyl)-3-hydroxy-4-oxo-4H-chromen-6-yl]-2-(1-naphthyl)-1-ethanesulfonamide] | 5.30 | 4.20
COc1ccc2c(=O)c(O)c(-c3ccc4c(c3)OCO4)oc2c1 [Compound 6, 2-(benzo[1,3]dioxol-5-yl)-3-hydroxy-7-methoxy-chromen-4-one] | < 4.00 | < 4.00
O=c1c(O)c(-c2ccc(O)c(O)c2)oc2c(F)cc(F)cc12 [Compound 21, 6,8-difluoro-2-(3,4-dihydroxyphenyl)-3-hydroxy-4H-chromen-4-one] | > 5.00 | > 5.00
O=c1cc(-c2ccccc2)oc2cc(O)ccc12 [Compound 3, 7-hydroxy-2-phenyl-chromen-4-one] | < 3.70 | < 3.70
Cc1cc2oc(-c3ccc(O)c(O)c3)c(O)c(=O)c2cc1C [Compound 26, 2-(3,4-dihydroxyphenyl)-6,7-dimethyl-3-hydroxy-4H-chromen-4-one] | > 5.00 | > 5.00
COc1ccc(-c2oc3ccccc3c(=O)c2O)cc1 [Compound 11, 3-hydroxy-2-(4-methoxy-phenyl)-chromen-4-one] | < 4.00 | < 4.00
O=C(N1CCc2ccc(S(=O)(=O)Nc3ccc4oc(-c5ccc(O)c(O)c5)c(O)c(=O)c4c3)cc2C1)C(F)(F)F [Compound 44, N-[2-(3,4-dihydroxyphenyl)-3-hydroxy-4-oxo-4H-chromen-6-yl]-2-(2,2,2-trifluoroacetyl)-1,2,3,4-tetrahydro-7-isoquinolinesulfonamide] | 5.64 | 5.39
N#Cc1cccc(NC(=O)Nc2ccc3oc(-c4ccc(O)c(O)c4)c(O)c(=O)c3c2)c1 [Compound 60, N-(3-cyanophenyl)-N′-[2-(3,4-dihydroxyphenyl)-3-hydroxy-4-oxo-4H-chromen-6-yl]urea] | 5.57 | 5.33
O=c1c(O)c(-c2ccc(O)c(O)c2)oc2ccc(NS(=O)(=O)c3ccc(F)cc3)cc12 [Compound 43, N-[2-(3,4-dihydroxyphenyl)-3-hydroxy-4-oxo-4H-chromen-6-yl]-4-fluorobenzenesulfonamide] | 5.68 | 5.07
COc1ccc(-c2oc3c([N+](=O)[O-])cc(Cl)cc3c(=O)c2O)cc1 [Compound 9, 6-chloro-3-hydroxy-2-(4-methoxy-phenyl)-8-nitro-chromen-4-one] | < 4.00 | < 4.00
O=c1c(O)c(-c2ccc(O)c(O)c2)oc2ccc(NS(=O)(=O)c3ccc(Br)cc3)cc12 [Compound 29, 4-bromo-N-[2-(3,4-dihydroxyphenyl)-3-hydroxy-4-oxo-4H-chromen-6-yl]benzenesulfonamide] | 5.74 | 4.75
O=c1c(O)c(-c2ccc(O)c(O)c2)oc2ccccc12 [Compound 63, 2-(3,4-dihydroxyphenyl)-3-hydoxy-4H-chromen-4-one] | > 5.00 | > 5.00
O=c1c(O)c(-c2ccc(O)c(O)c2)oc2ccc(NS(=O)(=O)c3ccc4c(c3)CNCC4)cc12 [Compound 46, N-[2-(3,4-dihydroxyphenyl)-3-hydroxy-4-oxo-4H-chromen-6-yl]-1,2,3,4-tetrahydro-7-isoquinolinesulfonamide] | 5.20 | 4.09
O=c1c(O)c(-c2ccc(O)c(O)c2)oc2ccc(NS(=O)(=O)c3cc(Br)c(Br)s3)cc12 [Compound 34, 4,5-Dibromo-N-[2-(3,4-dihydroxyphenyl)-3-hydroxy-4-oxo-4H-chromen-6-yl]-2-thiophenesulfonamide] | 6.00 | 5.52
COc1ccc2c(=O)c(O)c(-c3ccc(O)c(O)c3)oc2c1 [Compound 23, 2-(3,4-Dihydroxyphenyl)-3-hydroxy-7-methoxy-4H-chromen-4-one] | > 4.52 | > 4.52

Structure (SMILES) | pIC50 (CDK4/cyclin D1) | pIC50 (CDK2/cyclin A)
O=c1c(O)c(-c2ccc(O)c(O)c2)oc2c(O)cccc12 [Compound 25, 2-(3,4-dihydroxyphenyl)-3,8-dihydroxy-4H-chromen-4-one] | > 5.00 | > 5.00
COc1ccc(-c2oc3cc(OC)ccc3c(=O)c2O)cc1 [Compound 7, 3-hydroxy-7-methoxy-2-(4-methoxy-phenyl)-chromen-4-one] | < 4.00 | < 4.00
O=c1c(O)c(-c2ccc(O)c(O)c2)oc2ccc(NS(=O)(=O)c3ccc(-c4ccccn4)s3)cc12 [Compound 37, N-[2-(3,4-dihydroxyphenyl)-3-hydroxy-4-oxo-4H-chromen-6-yl]-5-(2-pyridinyl)-2-thiophenesulfonamide] | 5.38 | 4.90
O=C(Nc1cccc(Br)c1)Nc1ccc2oc(-c3ccc(O)c(O)c3)c(O)c(=O)c2c1 [Compound 58, N-(3-bromophenyl)-N′-[2-(3,4-dihydroxyphenyl)-3-hydroxy-4-oxo-4H-chromen-6-yl]urea] | 5.38 | 5.38
COc1ccc2oc(-c3ccc4c(c3)OCO4)c(O)c(=O)c2c1 [Compound 5, 2-(benzo[1,3]dioxol-5-yl)-3-hydroxy-6-methoxy-chromen-4-one] | < 4.00 | < 4.00
O=C(Nc1ccc2oc(-c3ccc(O)c(O)c3)c(O)c(=O)c2c1)c1ccccc1 [Compound 52, N-[2-(3,4-dihydroxyphenyl)-3-hydroxy-4-oxo-4H-chromen-6-yl]benzamide] | 5.22 | 4.64
O=c1c(O)c(-c2ccc(O)c(O)c2)oc2cc(O)ccc12 [Compound 64, 2-(3,4-dihydroxyphenyl)-3,7-dihydroxy-4H-chromen-4-one] | > 5.00 | > 5.30
COc1cccc2oc(-c3ccc(O)c(O)c3)c(O)c(=O)c12 [Compound 27, 2-(3,4-dihydroxyphenyl)-3-hydroxy-5-methoxy-4H-chromen-4-one] | > 5.00 | > 5.00
O=c1c(O)c(-c2ccc(O)c(O)c2)oc2ccc(NS(=O)(=O)c3ccc(N4CCOCC4)c([N+](=O)[O-])c3)cc12 [Compound 48, N-[2-(3,4-dihydroxyphenyl)-3-hydroxy-4-oxo-4H-chromen-6-yl]-4-(4-morpholinyl)-3-nitrobenzenesulfonamide] | 6.03 | 
Cc1cc2oc(-c3ccc(O)c(O)c3)c(O)c(=O)c2cc1Cl [Compound 22, 6-chloro-2-(3,4-dihydroxyphenyl)-3-hydroxy-7-methyl-4H-chromen4-one] | > 5.00 | > 5.00
O=c1c(O)c(-c2ccc(O)c(O)c2)oc2ccc(NS(=O)(=O)CCCCl)cc12 [Compound 41, 3-chloro-N-[2-(3,4-dihydroxyphenyl)-3-hydroxy-4-oxo-4H-chromen-6-yl]-1-propanesulfonamide] | 5.19 | 4.70
Nc1ccc(NC(=O)Nc2ccc3oc(-c4ccc(O)c(O)c4)c(O)c(=O)c3c2)cc1 [Compound 62, N-(4-aminophenyl)-N′-[2-(3,4-dihydroxyphenyl)-3-hydroxy-4-oxo-4H-chromen-6-yl]urea] | 5.64 | 5.59
CN(C)c1cccc2c(S(=O)(=O)Nc3ccc4oc(-c5ccc(O)c(O)c5)c(O)c(=O)c4c3)cccc12 [Compound 32, N-[2-(3,4-dihydroxyphenyl)-3-hydroxy-4-oxo-4H-chromen-6-yl]-5-(dimethylamino)-1-naphthalenesulfonamide] | 5.38 | 4.45
COc1ccc(-c2oc3c(Cl)cc(Cl)cc3c(=O)c2O)cc1 [Compound 10, 6,8-dichloro-3-hydroxy-2-(4-methoxy-phenyl)-chromen-4-one] | < 4.00 | < 4.00
O=c1c(O)c(-c2ccc(O)c(O)c2)oc2ccc(NS(=O)(=O)c3ccc4ccccc4c3)cc12 [Compound 31, N-[2-(3,4-dihydroxyphenyl)-3-hydroxy-4-oxo-4H-chromen-6-yl]-2-naphthalenesulfonamide] | 5.38 | 4.45
O=C(Nc1ccc(Br)cc1)Nc1ccc2oc(-c3ccc(O)c(O)c3)c(O)c(=O)c2c1 [Compound 55, N-(4-bromophenyl)-N′-[2-(3,4-dihydroxyphenyl)-3-hydroxy-4-oxo-4H-chromen-6-yl]urea] | 6.15 | 5.89

Source: US6500846B1, “CDK inhibitors having flavone structure” (LG Chemical, Ltd., priority 1998, dated 2002)
